Each block holds one compound with its values, some of them ahead of it.
Experiments:
[1] = tested on: Sprague Dawley rats; experiment: Cardiovascular assessment by radiotelemetry following subcutaneous injection (Example 12); assay type: in vivo, Sprague Dawley rat
Method: (§1) Clinical observations were performed at approximately 6 hours prior to dosing, at the completion of dosing and at approximately 4 hours postdosing.

[2] = tested on: Sprague Dawley rats; experiment: Rat intraplantar injection model, thermal pain sensitivity (Example 9); assay type: in vivo, Sprague Dawley rat; conditions: 100 μg/mL; both time points
Method: (§2) Male Sprague Dawley rats (n=112) were allocated into 14 groups of 8/group. The study was run in 2 cycles, on consecutive days, 7 groups per cycle. Each cycle was composed of a Saline group, PBS group, which served as the control, and also treprostinil at a dose of 100 μg/mL or 1 μg/mL.
(§3) Animals were administered 0.1 mL of test material by subcutaneous injection into the paw pad (Intraplantar injection) at time zero. Animals were subsequently evaluated for their response to mechanical (von Frey filaments) and thermal stimuli, 15 and 90 minutes post-injection. The von Frey test was conducted prior to the thermal test, which followed immediately within minutes for each animal. In addition, clinical observation scoring of the animal's reaction to injection was conducted. FIG. 16 schematically illustrates the study design.
(§4) The sensitivity of animals to a thermal pain stimulus was assessed immediately following the von Frey test. The time until withdrawal of the right-injected leg from a heat source was measured, and the lower (faster) the time of response represents a greater sensitivity to the stimulus. The test was performed 15 and 90 minutes post-Test Item injection.

[3] = tested on: Sprague Dawley rats; experiment: Rat intraplantar injection model, von Frey test (Example 9); assay type: in vivo, Sprague Dawley rat; conditions: for von Frey withdrawal force threshold vs PBS-treated group: both time points post-injection
Method: as §2, §3
Mechanical pain sensitivity was tested using the von Frey test, which measures the withdrawal force threshold of the animals. The lower the force applied represents a greater sensitivity to the stimulus. The von Frey test was performed 15 and 90 minutes post-Test Item injection.

[4] = tested on: Sprague Dawley rats; experiment: Rat intraplantar injection model, clinical observation score (Example 9); assay type: in vivo, Sprague Dawley rat
Method: as §2, §3
A Clinical observation score was assigned by assessing for redness, swelling and paw placement.

[5] = tested on: Sprague Dawley rats; experiment: Rat intraplantar injection model, thermal pain sensitivity (Example 10); assay type: in vivo, Sprague Dawley rat
Method: (§5) Male Sprague Dawley rats (n=56) were allocated into 7 groups of 8 animals per group. […] Each group was compared to the phosphate buffer (50-mM phosphate buffer with 50-mM sodium chloride at pH=7.4) treated group, which served as the control (Group 1).
as §3, with “zero. Then, the animals” for “zero. Animals”, “conducted.” for “conducted. FIG. 16 schematically illustrates the study design.”
as §4, with “post-test item” for “post-Test Item”

[6] = tested on: Sprague Dawley rats; experiment: Rat intraplantar injection model, clinical observation score (Example 10); assay type: in vivo, Sprague Dawley rat; conditions: 1 μg/mL; both time-points; compared with similar dose of treprostinil
Method: as §5
as §3, with “zero. Then, the animals” for “zero. Animals”, “conducted.” for “conducted. FIG. 16 schematically illustrates the study design.”
A clinical observation score was assigned by assessing for redness, swelling and paw placement.

[7] = tested on: Sprague Dawley rats; experiment: Clinical observations following subcutaneous injection (Example 12); assay type: in vivo, Sprague Dawley rat; conditions: 3, 10, or 30 mg/kg SC; some animals; approximately 4 hours
Method: as §1

[8] = tested on: Sprague Dawley rats; experiment: Rat intraplantar injection model, von Frey test (Example 10); assay type: in vivo, Sprague Dawley rat; conditions: 1 μg/mL or 100 μg/mL; 15 and 90 minutes post-injection
Method: as §5
as §3, with “zero. Then, the animals” for “zero. Animals”, “conducted.” for “conducted. FIG. 16 schematically illustrates the study design.”
Mechanical pain sensitivity was tested using the von Frey test, which measures the withdrawal force threshold of the animals. The lower the force applied represents a greater sensitivity to the stimulus. The von Frey test was performed 15 and 90 minutes post-test item injection.

[9] = in vitro; conditions: monkey, liver microsomes, pH 7.4
[10] = In vitro metabolic stability in liver microsomes; conditions: Rat
[11] = In vitro metabolic stability in liver microsomes; conditions: Monkey; +NADPH
[12] = only the 1 μg/mL dose, both time points

- von Frey withdrawal force threshold vs PBS-treated group ([3]; 1 μg/mL): no statistically significant difference
- sensitivity to mechanical stimulation vs similar dose of treprostinil [3, 12]: reduced sensitivity
- clinical score ([4]; 100 μg/mL (cycle 1), 15 min): non-zero
- clinical score vs PBS group ([4]; 100 μg/mL (cycle 1), 90 minutes post-injection): non-zero
- clinical score vs similar dose of treprostinil [4, 12]: reduced clinical score
- clinical score [6]: lower values of clinical score
- von Frey withdrawal force threshold vs phosphate buffer group [8]: reduced withdrawal force threshold
Structure (SMILES): CCCCC[C@H](O)CC[C@@H]1[C@H]2Cc3cccc(OCC(=O)NCC(=O)O)c3C[C@H]2C[C@H]1O [Prodrug VII]
- diastolic blood pressure change ([1]; 0.1 mg/kg SC (for Prodrug VII)): No meaningful change
- mean blood pressure change ([1]; 0.1 mg/kg SC (for Prodrug VII)): No meaningful change
- systolic blood pressure change ([1]; 0.1 mg/kg SC (for Prodrug VII)): No meaningful change
- body temperature change ([1]; 1 mg/kg SC): No significant changes
- diastolic blood pressure change ([1]; 3 mg/kg SC): Marginally lower
- diastolic blood pressure lowering persisted through ([1]; 3 mg/kg SC): 80 min
- diastolic blood pressure, time of nadir ([1]; 3 mg/kg SC): 50 min
- hypothermic response persisted through ([1]; 3 mg/kg SC): 4 h
- mean blood pressure change ([1]; 3 mg/kg SC): Marginally lower
- mean blood pressure, time of nadir ([1]; 3 mg/kg SC): 50 min
- systolic blood pressure change ([1]; 3 mg/kg SC): Marginally lower
- systolic blood pressure, time of nadir ([1]; 3 mg/kg SC): 50 min
- diastolic hypotension persisting through ([1]; 10 mg/kg SC): approximately 4 hours
- mean blood pressure hypotension persisting through ([1]; 10 mg/kg SC): approximately 4 hours
- pulse pressure change ([1]; 10 mg/kg SC): Marginally higher
- systolic hypotension persisting through ([1]; 10 mg/kg SC): approximately 4 hours
- systolic hypotension persisting through ([1]; 30 mg/kg SC): ~6 h
- time without recovery of body temperature ([1]; 30 mg/kg SC): > 24 h
- body temperature change ([1]; 3, 10, and 30 mg/kg SC): Significantly lower
- diastolic blood pressure change ([1]; 10 and 30 mg/kg SC): Significantly lower
- diastolic blood pressure, earliest time point of lowering ([1]; 10 and 30 mg/kg SC): 20 min
- diastolic blood pressure, time of nadir ([1]; 10 and 30 mg/kg SC): 40 min
- mean blood pressure change ([1]; 10 and 30 mg/kg SC): Significantly lower
- mean blood pressure, time of nadir ([1]; 10 and 30 mg/kg SC): 40 min
- systolic blood pressure change ([1]; 10 and 30 mg/kg SC): Significantly lower
- systolic blood pressure, earliest time point of lowering ([1]; 10 and 30 mg/kg SC): 20 min
- systolic blood pressure, time of nadir ([1]; 10 and 30 mg/kg SC): 40 min
- dose resulting in significantly lower body temperature ([1]; single SC injection): ≥ 3 mg/kg
- dose resulting in significantly lower systolic, diastolic, mean arterial blood pressure ([1]; single SC injection): ≥ 3 mg/kg
- heart rate change ([1]; single SC injection, all doses): Higher heart rates
- thermal paw withdrawal time vs PBS group [2]: trend toward reduction in the time of response
- von Frey withdrawal force threshold vs PBS-treated group ([3]; 100 μg/mL): statistically significant increased sensitivity
- clinical score vs PBS group ([4]; 100 μg/mL, both time points): statistically significant increase in the clinical score
- sensitivity to thermal stimulation ([5]; 1 μg/mL, both time-points, compared with similar dose of treprostinil): reduced sensitivity to thermal stimulation
- thermal paw withdrawal time vs phosphate buffer treated group ([5]; 100 μg/mL, 15 minutes post-administration): statistically significantly faster paw withdrawal time
- clinical observations [7]: flushed body and/or extremities, piloerection, hypoactivity, reddened forelimb(s) and/or hindlimb(s), wet yellow material on the urogenital area and ventral trunk, and dried red material around nose

- half-life at 500 nM [9]: > 6 h
- Half-life ([10]; +NADPH): 0.0982 h
- Half-life ([10]; −NADPH): >6 h
- Half-life [11]: 2.00 min
Structure (SMILES): CCOc1ccc2ccc(=O)oc2c1 [Prodrug 7-EC, 7-ethoxycoumarin]

Reference: patent publication US11672775B2, “Treprostinil prodrugs” (United Therapeutics Corporation, priority 2016, dated 2023)
